These results are taken from US11913032B2, “Compositions of and methods for in vitro viral genome engineering” (C3J Therapeutics, Inc., priority 2014, dated 2024).

This test relates to P. aeruginosa biofilm. The test is described as follows: Crystal violet biofilm assay, early (8 h preformed) biofilm disruption. In kind it is cell-based. As to conditions: biofilm preformed for 8 hours, compared with wild type LUZ19. The procedure: To validate that a Gp34 L55Δ mutation had improved viral properties, the LUZ19 viral genome was isolated from viral particles. Site-specific digestion was performed using an RNA-dependent nuclease and in vitro transcribed gRNAs to remove the gp34 gene (SEQ ID NO:4). The gp34 L55Δ gene, which harbors a deletion of leucine codon at amino acid position 55 (Gp34 L55Δ, position 163-165 of SEQ ID NO:4) was PCR amplified from a LUZ19 evolved phage. The Gibson Assembly method was used to integrate the PCR amplified gp34 L55Δ gene seamlessly into the digested LUZ19 genome. The in vitro transformed genomes were transformed directly into host cells to yield functional viral particles. The engineered LUZ19 virus harboring Gp34 L55Δ was able to diffuse and lyse bacteria. […] Images were taken and zones of clearing were measured over a two-day period (FIG. 5B). […] Crystal violet biofilm assay measures biofilm accumulation as a measure of the incorporation of crystal violet (FIG. 5C). […]
The LUZ19*LKD16gp18 virus was analyzed for improved viral properties, using double agar plaque, biofilm, and an in vitro human keratinocyte attachment assays. […] Specifically, LUZ19*LKD16gp18 and wild type LUZ19 were incubated with a P. aeruginosa biofilm and disruption was measured using crystal violet. […] The LUZ19*LKD16gp18 virus was analyzed for efficacy of phage treatment against bacteria attached to human keratinocytes. […]

Regarding Gentamicin, the early biofilm disruption entry is on record as “completely remove biofilm”.
